We go through 10 compounds from US20060183902A1, “Dihydroindolyl methanones as alpha 1a/1d adrenoreceptor modulators for the treatment of benign prostatic hypertrophy and lower urinary tract symptoms” (priority 2005, published 2006).

One data set deals with T1, α1b-AR (Homo sapiens, UniProt P35368).
T1 construct: expressed in transfected cells; host or cells: COS-7
T1 sequence (P35368 1-520): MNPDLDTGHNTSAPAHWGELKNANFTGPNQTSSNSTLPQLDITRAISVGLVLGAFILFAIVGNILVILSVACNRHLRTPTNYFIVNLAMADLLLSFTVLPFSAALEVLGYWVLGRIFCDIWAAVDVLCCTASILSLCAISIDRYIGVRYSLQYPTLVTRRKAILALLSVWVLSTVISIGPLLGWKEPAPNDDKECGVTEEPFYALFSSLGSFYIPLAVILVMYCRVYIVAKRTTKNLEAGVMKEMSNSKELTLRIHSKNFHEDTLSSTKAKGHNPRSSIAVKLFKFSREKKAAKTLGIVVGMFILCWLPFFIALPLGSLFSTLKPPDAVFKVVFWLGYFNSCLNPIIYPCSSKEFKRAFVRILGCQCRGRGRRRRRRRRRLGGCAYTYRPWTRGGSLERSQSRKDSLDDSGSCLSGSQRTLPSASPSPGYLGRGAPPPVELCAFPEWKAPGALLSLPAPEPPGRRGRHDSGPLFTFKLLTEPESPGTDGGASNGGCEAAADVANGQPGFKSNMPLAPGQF
Briefly: α1-Adrenergic receptor radio-ligand (125I-HEAT) binding assay, α1b subtype. The conditions noted are these: COS-7 cell membranes transfected with α1b-AR, 125I-HEAT 50 pM; read-out: Receptor Binding, Ki α1b-AR. In short, it runs like this:
(§1)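 Membranes from COS-7 cells transfected with a single α1-AR subtype, incubated 1 h at rt with 50 pM 125I-HEAT and compound (1 pM–10 µM, half-log steps, final) in Tris/EDTA/NaCl pH 7.4. Bound radioactivity collected by GF/C filtration and scintillation counting, triplicates; Ki derived.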

In the next data set the target is T2, α1a-AR (Homo sapiens, UniProt P35348).
T2 construct: expressed in transfected cells; host or cells: COS-7
T2 sequence (P35348 1-466): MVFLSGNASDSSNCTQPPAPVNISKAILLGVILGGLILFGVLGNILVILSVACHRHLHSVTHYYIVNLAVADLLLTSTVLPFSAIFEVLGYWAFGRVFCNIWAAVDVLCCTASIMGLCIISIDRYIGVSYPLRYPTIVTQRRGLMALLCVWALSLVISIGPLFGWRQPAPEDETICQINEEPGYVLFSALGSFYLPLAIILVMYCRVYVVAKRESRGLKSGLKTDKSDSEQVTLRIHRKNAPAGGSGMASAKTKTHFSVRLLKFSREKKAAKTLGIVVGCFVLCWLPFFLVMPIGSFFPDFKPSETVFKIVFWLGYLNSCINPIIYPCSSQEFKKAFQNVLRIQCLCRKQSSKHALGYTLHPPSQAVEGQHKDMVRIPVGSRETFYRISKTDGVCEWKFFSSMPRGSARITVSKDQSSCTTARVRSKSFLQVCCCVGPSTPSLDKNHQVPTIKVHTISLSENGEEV
Briefly: α1-Adrenergic receptor radio-ligand (125I-HEAT) binding assay, α1a subtype. Conditions: COS-7 cell membranes transfected with α1a-AR, 125I-HEAT 50 pM; read-out: Receptor Binding, Ki α1a-AR. The method in brief: as §1

In the next data set the target is T3, α1d-AR (Homo sapiens, UniProt P25100).
T3 construct: expressed in transfected cells; host or cells: COS-7
T3 sequence (P25100 1-572): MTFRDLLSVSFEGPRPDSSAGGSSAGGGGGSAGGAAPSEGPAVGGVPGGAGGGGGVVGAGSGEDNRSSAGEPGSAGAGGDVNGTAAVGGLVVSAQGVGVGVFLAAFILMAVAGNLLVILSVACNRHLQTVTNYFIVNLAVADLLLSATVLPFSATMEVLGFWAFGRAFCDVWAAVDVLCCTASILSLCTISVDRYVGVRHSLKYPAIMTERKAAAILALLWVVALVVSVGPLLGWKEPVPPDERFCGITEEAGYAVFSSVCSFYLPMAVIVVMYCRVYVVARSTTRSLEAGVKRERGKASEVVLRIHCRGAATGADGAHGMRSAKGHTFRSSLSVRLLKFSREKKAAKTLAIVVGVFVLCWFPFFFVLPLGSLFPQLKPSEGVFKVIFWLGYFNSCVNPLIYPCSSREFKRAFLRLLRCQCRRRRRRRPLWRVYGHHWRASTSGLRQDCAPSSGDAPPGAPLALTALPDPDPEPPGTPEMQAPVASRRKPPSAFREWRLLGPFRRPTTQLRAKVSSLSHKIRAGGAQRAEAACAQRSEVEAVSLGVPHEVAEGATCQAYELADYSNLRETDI
The experiment in a line: α1-Adrenergic receptor radio-ligand (125I-HEAT) binding assay, α1d subtype. Conditions: COS-7 cell membranes transfected with α1d-AR, 125I-HEAT 50 pM; read-out: Receptor Binding, Ki α1d-AR. In short, it runs like this: as §1

Data set [1] deals with α1a and α1d subtypes over the α1b subtype. The conditions noted are these: cited from earlier work.
In a further data set the test system is BPH patients. Conditions: clinical studies; cited from earlier work.
The subject of data set [2] is normal rats and rats with bladder hypertrophy secondary to outlet obstruction. The conditions noted are these: intrathecally administered; cited from earlier work.

pKi: −log10 of the molar value.

Turning to `CC(C)Oc1ccccc1N1CCN(Cc2cccc(C(=O)N3CCc4cc(NCc5ccc(C(F)(F)F)cc5)ccc43)c2)CC1` [Cpd 8, {3-[4-(2-isopropoxy-phenyl)-piperazin-1-ylmethyl]-phenyl}-[5-(4-trifluoromethyl-benzylamino)-2,3-dihydro-indol-1-yl]-methanone], the melting point (commonly the temperature of the solid-liquid transition) lay in the range of 74 to 76 °C. Also, the pKi (usually the negative decadic logarithm of the Ki, by convention in mol/L) at α1b-AR was 6.41. The negative-log Ki (pKi) on α1a-AR is 7.85. In addition, the pKi at α1d-AR is 7.82.
Consider `CC(C)Oc1ccccc1N1CCN(Cc2cccc(C(=O)N3CCc4cc(NCc5c(F)cccc5F)ccc43)c2)CC1` [Cpd 9, [5-(2,6-difluoro-benzylamino)-2,3-dihydro-indol-1-yl]-{3-[4-(2-isopropoxy-phenyl)-piperazin-1-ylmethyl]-phenyl}-methanone], for which the melting point was 127 to 130 °C. For the same compound, the negative logarithm of the Ki (pKi) on α1b-AR was 5.69. In addition, the pKi at α1a-AR was 7.59. On α1d-AR, the negative logarithm of the Ki (pKi) was 7.77.
The compound `CCOC(OCC)c1ccc(CNc2ccc3c(c2)N(C(=O)c2cccc(CN4CCN(c5ccccc5OC(C)C)CC4)c2)CC3)cc1` [Cpd 11] had a melting point of 156 to 160 °C. Besides, on α1b-AR, the pKi was 5.20. Moreover, the negative logarithm of the Ki (pKi) on α1a-AR was 8.30. For the same compound, the negative logarithm of the Ki (pKi) at α1d-AR is 8.15.
`Cc1c(S(=O)(=O)Nc2ccc3c(c2)N(C(=O)c2cccc(CN4CCN(c5ccccc5OC(C)C)CC4)c2)CC3)sc2ccc(Cl)cc12` [Cpd 18, 5-chloro-3-methyl-benzo[b]thiophene-2-sulfonic acid (1-{3-[4-(2-isopropoxy-phenyl)-piperazin-1-ylmethyl]-benzoyl}-2,3-dihydro-1H-indol-6-yl)-amide] yielded a melting point of 192 to 195 °C. Besides, the pKi at α1b-AR is 7.37. The negative logarithm of the Ki (pKi) on α1a-AR was 10.40. Also, on α1d-AR, the pKi is 8.40.
Regarding `CC(=O)Nc1ccc(S(=O)(=O)Nc2ccc3c(c2)CCN3C(=O)c2cccc(CN3CCN(c4ccccc4OC(C)C)CC3)c2)cc1` [Cpd 19, N-[4-(1-{3-[4-(2-isopropoxy-phenyl)-piperazin-1-ylmethyl]-benzoyl}-2,3-dihydro-1H-indol-5-ylsulfamoyl)-phenyl]-acetamide], the melting point lay within 132 to 134 °C. Besides, the pKi at α1b-AR is 6.42. The negative-log Ki (pKi) at α1a-AR was 7.59. Besides, at α1d-AR, the negative-log Ki (pKi) was 8.64.
The corresponding values for `COc1cccc(OC)c1CNc1ccc2c(c1)CCN2C(=O)c1cccc(CN2CCN(c3ccccc3OC(C)C)CC2)c1` [Cpd 25, [5-(2,6-dimethoxy-benzylamino)-2,3-dihydro-indol-1-yl]-{3-[4-(2-isopropoxy-phenyl)-piperazin-1-ylmethyl]-phenyl}-methanone] are 79 to 81 °C, 5.89, 7.17 and 7.74.
In turn, `COc1cccc(OC)c1C(=O)Nc1ccc2c(c1)CCN2C(=O)c1cccc(CN2CCN(c3ccccc3OC(C)C)CC2)c1` [Cpd 26, N-(1-{3-[4-(2-isopropoxy-phenyl)-piperazin-1-ylmethyl]-benzoyl}-2,3-dihydro-1H-indol-5-yl)-2,6-dimethoxy-benzamide] displayed a melting point of 229 to 232 °C. On α1b-AR, the negative-log Ki (pKi) is 6.70. In addition, on α1a-AR, the pKi was 7.47. For the same compound, the pKi at α1d-AR is 8.70.
`CC(C)Oc1ccccc1N1CCN(Cc2cccc(C(=O)N3CCc4ccc(NS(=O)(=O)c5cccc6c(N(C)C)cccc56)cc43)c2)CC1` [Cpd 32, 5-dimethylamino-naphthalene-1-sulfonic acid (1-{3-[4-(2-isopropoxy-phenyl)-piperazin-1-ylmethyl]-benzoyl}-2,3-dihydro-1H-indol-6-yl)-amide] came in with a melting point of 137 to 139 °C. Further, the pKi on α1b-AR is 6.21. For the same compound, the pKi on α1a-AR is 8.57. In addition, the pKi at α1d-AR was 8.03.
Regarding `CCOc1ccccc1OCCN[C@H](C)Cc1ccc(OC)c(S(N)(=O)=O)c1` [Tamsulosin], the “selective for the α1a and α1d subtypes over the α1b subtype” value in data set [1] is “about 15 fold”. For the same compound, the “effect on obstructive and irritative symptoms of BPH” value with BPH patients is “improvement in both obstructive and irritative symptoms”.
On to `COc1cc2nc(N3CCN(C(=O)C4COc5ccccc5O4)CC3)nc(N)c2cc1OC` (centres unmarked) [doxazosin], for which the micturition pressure entry in data set [2] is listed as “decrease in micturition pressure”.
